According to patent US20230407243A1, “GENETIC PLATFORM TO INVESTIGATE THE FUNCTIONS OF BACTERIAL DRUG EFFLUX PUMPS” (priority 2022, published 2023):

How the values were obtained:
Type in all cases: cell-based, Escherichia coli
[1] = test system: EKO-35 araC::acrBD408A Pore; assay: MIC susceptibility profiling, porinated efflux platform; conditions: for Fold changes of MICs: EKO-35 araC::acrBD408A Pore compared to EKO-35-Pore; for Minimum inhibitory concentration: EKO-35 araC::acrBD408A Pore, technical duplicate
Description: (§1) For genomic integration of the pore, the fhuA ΔC/Δ4L gene and the adjacent gentamicin resistance cassette were amplified using a high-fidelity polymerase and the fhuA_40_Up/gImS_3680_Low primers (Table 4). Integration of the pore gene was performed as described above. The pore gene was introduced into the intergenic region between the glmS and pstS genes, with gene expression under the control of a constitutive promoter (Kearse, M. et al., 2012). Genomic integrations were verified using PCR (Primers: pstS_520_Up/glmS_3680_Low, Table 4). Successful integrations were transformed with pCP20 to remove the gentamicin resistance cassette as previously described. Activity of the pore was confirmed through susceptibility testing with the large antibiotic vancomycin prior to phenotypic profiling and further susceptibility testing.
(§2) Single colonies were used to inoculate 3 mL of LB followed by incubation at 37° C. for 18 h with aeration at 220 rpm. The bacterial cells were harvested by centrifugation and resuspended in phosphate buffered saline (PBS) ([pH 7.4], 137 mM NaCl (Bioshop), 2.7 mM KCl (Bioshop), 10 mM Na2PO4 (Bioshop) and 1.8 mM K2PO4) to an OD600 nm˜1.0, followed by 1/2000 dilution into MHB II.
(§3) To a 384-well microtiter plate (Corning, untreated polystyrene), 500 nL of compound was dispensed, in duplicate, and serially titrated 2-fold using an Echo 550 acoustic liquid dispenser (Labcyte Inc.). […] As a solvent control, 500 nL of DMSO was applied to wells that contained no compound. Using a multichannel pipette, 50 μL of the prepared bacterial inoculum was applied to each well. To enable background correction post-incubation, the OD600 nm was measured (Biotek Synergy Neo2 microplate reader) prior to incubation. The plates were incubated at 37° C. with aeration at 900 rpm for 18 h. The plates were equilibrated to room temperature and the OD600 nm measured using a BioTek Synergy Neo2 microplate reader. Data was analyzed in both Prism (GraphPad, Version 9.2.0) and Microsoft Excel (Version 16.53). Raw data were input into Microsoft Excel and the pre-incubation OD600 nm measurements were subtracted from the post-incubation OD600 nm measurements. These corrected measurements were input into Prism 9 as a grouped analysis. […] All other MIC values were adjusted accordingly and visualized using the single-color scale grouped heat map function. Identification of compound chemical properties was achieved using DataWarrior (Version 5.5.0). Using PubChem, the SMILES chemical notation for each compound was obtained and compiled in Microsoft Excel. The resulting spreadsheet was input into DataWarrior and properties were calculated from the compound chemical structures.

[2] = test system: EKO-35 araC::acrD Pore; assay: as above; conditions: for Fold changes of MICs: EKO-35 araC::acrD Pore compared to EKO-35-Pore; for Minimum inhibitory concentration, EKO-35 araC::acrD Pore: Table 14A, porinated, technical duplicate
Description: as §1, §2, §3

[3] = test system: EKO-35 araC::mdtEF Pore; assay: as above; conditions: for Fold changes of MICs: EKO-35 araC::mdtEF Pore compared to EKO-35-Pore; for Minimum inhibitory concentration, EKO-35 araC::mdtEF Pore: Table 14A, porinated, technical duplicate
Description: as §1, §2, §3

[4] = test system: EKO-35 araC::mdtBC Pore; assay: as above; conditions: for Fold changes of MICs: EKO-35 araC::mdtBC Pore compared to EKO-35-Pore; for Minimum inhibitory concentration: EKO-35 araC::mdtBC Pore, technical duplicate
Description: as §1, §2, §3

[5] = test system: EKO-35 araC::macAB Pore; assay: as above; conditions: for Fold changes of MICs: EKO-35 araC::macAB Pore compared to EKO-35-Pore; for Minimum inhibitory concentration: EKO-35 araC::macAB Pore, technical duplicate
Description: as §1, §2, §3

[6] = test system: EKO-35 araC::emrAB Pore; assay: as above; conditions: for Fold changes of MICs: EKO-35 araC::emrAB Pore compared to EKO-35-Pore; for Minimum inhibitory concentration: EKO-35 araC::emrAB Pore, technical duplicate
Description: as §1, §2, §3

[7] = test system: EKO-35 araC::emrKY Pore; assay: as above; conditions: for Fold changes of MICs: EKO-35 araC::emrKY Pore compared to EKO-35-Pore; for Minimum inhibitory concentration: EKO-35 araC::emrKY Pore, technical duplicate
Description: as §1, §2, §3

[8] = test system: EKO-35 araC::mexCD Pore; assay: as above; conditions: for Fold changes of MICs: EKO-35 araC::mexCD Pore compared to EKO-35-Pore; for Minimum inhibitory concentration: EKO-35 araC::mexCD Pore, technical duplicate
Description: as §1, §2, §3

[9] = test system: EKO-35 araC::acrEF Pore; assay: as above; conditions: for Fold changes of MICs: EKO-35 araC::acrEF Pore compared to EKO-35-Pore; for Minimum inhibitory concentration, EKO-35 araC::acrEF Pore: Table 14A, porinated, technical duplicate
Description: as §1, §2, §3

[10] = test system: EKO-35 araC::acrB Pore; assay: as above; conditions: for Fold changes of MICs: EKO-35 araC::acr-B Pore compared to EKO-35-Pore; for Minimum inhibitory concentration, EKO-35 araC::acrB Pore: Table 14A, porinated, technical duplicate
Description: as §1, §2, §3

[11] = test system: EKO-35 araC::macAB; assay: MIC susceptibility profiling, efflux platform; conditions: for Fold change of MICs: EKO-35 araC::macAB compared to EKO-35; for Minimum Inhibitory Concentration, EKO-35 araC::macAB: Table 13B, non-porinated, technical duplicate
Description: as §2, §3

[12] = test system: EKO-35 araC::acrD; assay: MIC susceptibility profiling, efflux platform; conditions: for Fold change of MICs: EKO-35 araC::acrD compared to EKO-35; for Minimum Inhibitory Concentration, EKO-35 araC::acrD: Table 13A, non-porinated, technical duplicate
Description: as §2, §3

[13] = test system: EKO-35 araC::acrBD408A; assay: MIC susceptibility profiling, efflux platform; conditions: for Fold change of MICs: EKO-35 araC::acrBD408A compared to EKO-35; for Minimum Inhibitory Concentration, EKO-35 araC::acrBD408A: Table 13B, non-porinated, technical duplicate
Description: as §2, §3

[14] = test system: EKO-35 araC::acrEF; assay: MIC susceptibility profiling, efflux platform; conditions: for Fold change of MICs: EKO-35 araC::acrEF compared to EKO-35; for Minimum Inhibitory Concentration, EKO-35 araC::acrEF: Table 13A, non-porinated, technical duplicate
Description: as §2, §3

[15] = test system: EKO-35 araC::emrKY; assay: MIC susceptibility profiling, efflux platform; conditions: for Fold change of MICs: EKO-35 araC::emrKY compared to EKO-35; for Minimum Inhibitory Concentration, EKO-35 araC::emrKY: Table 13B, non-porinated, technical duplicate
Description: as §2, §3

[16] = test system: EKO-35 araC::mdtBC; assay: MIC susceptibility profiling, efflux platform; conditions: for Fold change of MICs: EKO-35 araC::mdtBC compared to EKO-35; for Minimum Inhibitory Concentration, EKO-35 araC::mdtBC: Table 13B, non-porinated, technical duplicate
Description: as §2, §3

[17] = test system: EKO-35 araC::emrAB; assay: MIC susceptibility profiling, efflux platform; conditions: for Fold change of MICs: EKO-35 araC::emrAB compared to EKO-35; for Minimum Inhibitory Concentration, EKO-35 araC::emrAB: Table 13B, non-porinated, technical duplicate
Description: as §2, §3

[18] = test system: EKO-35 araC::mexCD (MexCD from P. aeruginosa); assay: MIC susceptibility profiling, efflux platform; conditions: for Fold change of MICs: EKO-35 araC::mexCD compared to EKO-35; for Minimum Inhibitory Concentration, EKO-35 araC::mexCD: Table 13B, non-porinated, technical duplicate
Description: as §2, §3

Compound	Fold changes of MICs [1]	Minimum inhibitory concentration [1]	Fold changes of MICs [2]	Minimum inhibitory concentration, EKO-35 araC::acrD Pore [2]	Fold changes of MICs [3]	Minimum inhibitory concentration, EKO-35 araC::mdtEF Pore [3]	Fold changes of MICs [4]	Minimum inhibitory concentration [4]	Fold changes of MICs [5]	Minimum inhibitory concentration [5]	Fold changes of MICs [6]	Minimum inhibitory concentration [6]	Fold changes of MICs [7]	Minimum inhibitory concentration [7]	Fold changes of MICs [8]	Minimum inhibitory concentration [8]	Fold changes of MICs [9]	Minimum inhibitory concentration, EKO-35 araC::acrEF Pore [9]	Fold changes of MICs [10]	Minimum inhibitory concentration, EKO-35 araC::acrB Pore [10]	other results
benzalkonium chloride	1 fold	0.391 µg/mL	1 fold	0.391 µg/mL	4 fold	1.563 µg/mL	1 fold	0.195 µg/mL	1 fold	0.391 µg/mL	1 fold	0.391 µg/mL	1 fold	0.195 µg/mL	1 fold	0.391 µg/mL	2 fold	0.781 µg/mL	8 fold	3.125 µg/mL	efflux pump-mediated resistance vs EKO-35-Pore ([9]; AcrEF with the pore): impacted the ability of AcrEF to confer resistance; Fold change of MICs [11]: 1 fold; Minimum Inhibitory Concentration, EKO-35 araC::macAB [11]: 0.391 µg/mL; Fold change of MICs [12]: 1 fold; Minimum Inhibitory Concentration, EKO-35 araC::acrD [12]: 0.391 µg/mL; Fold change of MICs [13]: 1 fold; Minimum Inhibitory Concentration, EKO-35 araC::acrBD408A [13]: 0.391 µg/mL; Fold change of MICs [14]: 4 fold; Minimum Inhibitory Concentration, EKO-35 araC::acrEF [14]: 1.563 µg/mL; Fold change of MICs [15]: 1 fold; Minimum Inhibitory Concentration, EKO-35 araC::emrKY [15]: 0.391 µg/mL; Fold change of MICs [16]: 1 fold; Minimum Inhibitory Concentration, EKO-35 araC::mdtBC [16]: 0.391 µg/mL; Fold change of MICs [17]: 1 fold; Minimum Inhibitory Concentration, EKO-35 araC::emrAB [17]: 0.391 µg/mL; Fold change of MICs [18]: 2 fold; Minimum Inhibitory Concentration, EKO-35 araC::mexCD [18]: 0.781 µg/mL
N#CC(C#N)=NNc1cccc(Cl)c1 [CCCP]	1 fold	6.25 µg/mL	1 fold	6.25 µg/mL	1 fold	6.25 µg/mL	2 fold	12.5 µg/mL	1 fold	6.25 µg/mL	2 fold	12.5 µg/mL	1 fold	6.25 µg/mL	1 fold	6.25 µg/mL	1 fold	3.125 µg/mL	1 fold	6.25 µg/mL	efflux pump-mediated resistance vs EKO-35-Pore ([6]; EmrAB, porinated strain): no longer provided resistance; Fold change of MICs [11]: 1 fold; Minimum Inhibitory Concentration, EKO-35 araC::macAB [11]: 12.5 µg/mL; Fold change of MICs [12]: 1 fold; Minimum Inhibitory Concentration, EKO-35 araC::acrD [12]: 6.25 µg/mL; Fold change of MICs [13]: 1 fold; Minimum Inhibitory Concentration, EKO-35 araC::acrBD408A [13]: 12.5 µg/mL; Fold change of MICs [14]: 1 fold; Minimum Inhibitory Concentration, EKO-35 araC::acrEF [14]: 12.5 µg/mL; Fold change of MICs [15]: 1 fold; Minimum Inhibitory Concentration, EKO-35 araC::emrKY [15]: 12.5 µg/mL; Fold change of MICs [16]: 1 fold; Minimum Inhibitory Concentration, EKO-35 araC::mdtBC [16]: 12.5 µg/mL; Fold change of MICs [17]: 4 fold; efflux pump-mediated resistance vs EKO-35 ([17]; EmrAB): conferred resistance; Minimum Inhibitory Concentration, EKO-35 araC::emrAB [17]: 50 µg/mL; Fold change of MICs [18]: 1 fold; Minimum Inhibitory Concentration, EKO-35 araC::mexCD [18]: 12.5 µg/mL
